What was measured:
Cholinesterase = Cholinesterase (Homo sapiens, UniProt P06276); assay: Inhibition of human plasmatic BChE by Lineweaver-Burk plot analysis; format: cell-free, Plasma
Acetylcholinesterase [1] = biological target: T1, Acetylcholinesterase (Homo sapiens, UniProt P22303); assay: Inhibition of human recombinant AChE by Lineweaver-Burk plot analysis
Acetylcholinesterase [2] = biological target: T1, Acetylcholinesterase
Description: Dissociation constant for enzyme-inhibitor-substrate complex of human recombinant AChE by Lineweaver-Burk plot analysis

Acetylcholinesterase [3] = biological target: T1, Acetylcholinesterase; remark: listed apart in the source
Description: Dissociation constant for enzyme-inhibitor complex of human recombinant AChE by Lineweaver-Burk plot analysis

Cholinesterase, sequence (P06276 whole entry): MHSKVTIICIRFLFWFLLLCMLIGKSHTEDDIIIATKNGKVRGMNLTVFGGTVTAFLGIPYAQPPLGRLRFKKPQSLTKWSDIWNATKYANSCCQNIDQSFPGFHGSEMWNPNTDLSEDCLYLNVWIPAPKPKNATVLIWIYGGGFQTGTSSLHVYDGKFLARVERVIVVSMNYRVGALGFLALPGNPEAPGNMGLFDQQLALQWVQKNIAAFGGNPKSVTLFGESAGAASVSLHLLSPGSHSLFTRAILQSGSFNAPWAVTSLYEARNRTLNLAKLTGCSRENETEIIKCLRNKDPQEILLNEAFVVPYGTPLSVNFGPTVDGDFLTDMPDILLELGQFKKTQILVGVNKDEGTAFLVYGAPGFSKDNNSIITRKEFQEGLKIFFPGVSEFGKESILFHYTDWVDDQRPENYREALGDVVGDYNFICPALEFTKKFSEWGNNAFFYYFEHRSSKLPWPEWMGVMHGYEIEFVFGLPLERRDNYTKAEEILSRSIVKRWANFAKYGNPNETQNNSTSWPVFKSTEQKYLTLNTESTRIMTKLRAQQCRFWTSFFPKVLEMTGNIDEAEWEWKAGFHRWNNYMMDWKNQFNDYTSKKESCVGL
T1 sequence (P22303 whole entry): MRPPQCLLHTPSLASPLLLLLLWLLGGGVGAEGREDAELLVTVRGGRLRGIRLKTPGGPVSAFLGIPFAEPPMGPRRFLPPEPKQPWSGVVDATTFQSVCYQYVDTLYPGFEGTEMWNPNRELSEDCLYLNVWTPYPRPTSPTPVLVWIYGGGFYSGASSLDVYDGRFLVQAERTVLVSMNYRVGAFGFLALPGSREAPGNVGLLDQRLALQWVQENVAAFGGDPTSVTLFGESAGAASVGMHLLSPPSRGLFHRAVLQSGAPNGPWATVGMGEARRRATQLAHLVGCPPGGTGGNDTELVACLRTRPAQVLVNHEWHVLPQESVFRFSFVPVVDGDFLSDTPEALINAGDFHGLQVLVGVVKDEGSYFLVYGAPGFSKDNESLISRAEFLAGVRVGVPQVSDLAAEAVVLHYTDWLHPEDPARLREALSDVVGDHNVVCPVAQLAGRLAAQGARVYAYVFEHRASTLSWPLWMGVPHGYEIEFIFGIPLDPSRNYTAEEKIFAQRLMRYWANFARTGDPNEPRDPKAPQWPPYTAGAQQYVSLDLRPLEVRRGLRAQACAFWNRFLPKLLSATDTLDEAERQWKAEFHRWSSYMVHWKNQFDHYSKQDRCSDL

Row | Structure (SMILES) | IC50 (Cholinesterase) | IC50 (Acetylcholinesterase [1]) | Ki (Acetylcholinesterase [2]) | Ki (Acetylcholinesterase [3])
1 | C[N+](C)(CCNC(=O)C(=O)NCC[N+](C)(C)Cc1ccccc1Cl)Cc1ccccc1Cl [AMBENONIUM DICHLORIDE] | 6.82 µM | – | – | –
2 | c1ccc(C[n+]2ccc3ccccc3c2)c(C[n+]2ccc3ccccc3c2)c1 | 0.6 µM | 250 µM | – | –
3 | C(=C/C[n+]1ccc2ccccc2c1)/C[n+]1ccc2ccccc2c1 | 25 µM | 17 µM | – | –
4 | c1ccc2c[n+](C[n+]3ccc4ccccc4c3)ccc2c1 | 1400 µM | 654 µM | – | –
5 | c1ccc2c[n+](CCCCCCCCCCC[n+]3ccc4ccccc4c3)ccc2c1 | 9 µM | 0.1 µM | – | –
6 | CC[N+](C)(C)c1cccc(O)c1 [EDROPHONIUM CHLORIDE] | 1370 µM | – | – | –
7 | c1ccc2c[n+](Cc3ccc4ccc(C[n+]5ccc6ccccc6c5)cc4c3)ccc2c1 | 4 µM | 0.3 µM | 0.75 µM | 1.25 µM
8 | c1ccc2c[n+](CCCC[n+]3ccc4ccccc4c3)ccc2c1 | 40 µM | 36 µM | – | –
9 | c1ccc2c[n+](Cc3ccc(C[n+]4ccc5ccccc5c4)cc3)ccc2c1 | 840 µM | 12 µM | – | –
10 | c1ccc2c[n+](CCCCCC[n+]3ccc4ccccc4c3)ccc2c1 | 2 µM | 0.3 µM | – | –
11 | c1ccc2c[n+](CCCCCCCCCCCC[n+]3ccc4ccccc4c3)ccc2c1 | 0.1 µM | 137 µM | – | –
12 | c1ccc2c[n+](CCC[n+]3ccc4ccccc4c3)ccc2c1 | 2600 µM | 446 µM | – | –
13 | c1ccc2c[n+](CCCCC[n+]3ccc4ccccc4c3)ccc2c1 | 0.7 µM | 13 µM | – | –
14 | c1ccc2c[n+](CCCCCCCCCC[n+]3ccc4ccccc4c3)ccc2c1 | 1.6 µM | 0.05 µM | – | –
15 | c1ccc2c[n+](CCOCC[n+]3ccc4ccccc4c3)ccc2c1 | 51 µM | 1310 µM | – | –
16 | C(=C\C[n+]1ccc2ccccc2c1)/C[n+]1ccc2ccccc2c1 | 64 µM | 7 µM | – | –
17 | c1ccc2c[n+](COC[n+]3ccc4ccccc4c3)ccc2c1 | 154 µM | 2 µM | – | –
18 | c1ccc2c[n+](CCCCCCC[n+]3ccc4ccccc4c3)ccc2c1 | 3 µM | 0.5 µM | – | –
19 | c1cc(C[n+]2ccc3ccccc3c2)cc(C[n+]2ccc3ccccc3c2)c1 | 1 µM | 8 µM | – | –
20 | c1ccc2c[n+](CCCCCCCCC[n+]3ccc4ccccc4c3)ccc2c1 | 0.6 µM | 0.04 µM | – | –
